These are literature values, as cited in patent publication US20250360174A1, “ENGINEERED BACTERIA, ENGINEERED BIOFILMS, AND LIVING MATERIALS BASED ON BACILLUS SUBTILIS” (EAST CHINA UNIVERSITY OF SCIENCE AND TECHNOLOGY, priority 2024, published 2025).

Structures are written as SMILES.

This data set concerns RAW264.7 cells.

As for `O[C@H]1[C@@H]2OC[C@H](O[C@H]1O)[C@H]2O` [L-AHG, 3,6-anhydro-α-L-galactose], the anti-inflammatory activity entry was “has been shown to have anti-inflammatory activity”.
